Source: ChEMBL document CHEMBL1201862, “PubChem BioAssay data set” (2004)
One block for each compound: values may come before it. Activity calls are given as the source filed them.

Tests used:
Estrogen receptor = molecular target: T1, Estrogen receptor (Homo sapiens, UniProt P03372);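 note: potency for inhibiting coactivator peptide recruitment to the receptor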
T1 sequence (P03372 whole entry): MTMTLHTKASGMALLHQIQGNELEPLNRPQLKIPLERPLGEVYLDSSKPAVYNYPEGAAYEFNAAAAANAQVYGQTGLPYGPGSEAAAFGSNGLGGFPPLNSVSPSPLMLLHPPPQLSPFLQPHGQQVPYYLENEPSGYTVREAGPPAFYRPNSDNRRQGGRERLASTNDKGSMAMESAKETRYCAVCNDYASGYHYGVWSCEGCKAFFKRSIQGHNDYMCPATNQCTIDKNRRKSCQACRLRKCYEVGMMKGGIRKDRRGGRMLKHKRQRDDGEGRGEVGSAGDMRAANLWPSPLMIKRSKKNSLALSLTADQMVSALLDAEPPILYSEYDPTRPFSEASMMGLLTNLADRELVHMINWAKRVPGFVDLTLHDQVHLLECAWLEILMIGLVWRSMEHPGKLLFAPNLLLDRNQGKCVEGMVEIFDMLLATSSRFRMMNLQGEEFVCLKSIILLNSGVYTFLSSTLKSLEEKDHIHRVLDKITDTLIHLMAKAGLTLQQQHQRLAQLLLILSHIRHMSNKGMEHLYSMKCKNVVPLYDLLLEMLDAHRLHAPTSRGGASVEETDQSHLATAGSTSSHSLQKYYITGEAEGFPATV

Cytochrome P450 2D6 = Cytochrome P450 2D6 (Homo sapiens, UniProt P10635); assay: qHTS Assay for Inhibitors and Substrates of Cytochrome P450 2D6. [Related pubchem assays: 410 ]; type: ADME; conditions: read-out: Potency
Cytochrome P450 2C9 = Cytochrome P450 2C9 (Homo sapiens, UniProt P11712); conditions: Potency
Sequence of Cytochrome P450 2C9 (P11712 whole entry): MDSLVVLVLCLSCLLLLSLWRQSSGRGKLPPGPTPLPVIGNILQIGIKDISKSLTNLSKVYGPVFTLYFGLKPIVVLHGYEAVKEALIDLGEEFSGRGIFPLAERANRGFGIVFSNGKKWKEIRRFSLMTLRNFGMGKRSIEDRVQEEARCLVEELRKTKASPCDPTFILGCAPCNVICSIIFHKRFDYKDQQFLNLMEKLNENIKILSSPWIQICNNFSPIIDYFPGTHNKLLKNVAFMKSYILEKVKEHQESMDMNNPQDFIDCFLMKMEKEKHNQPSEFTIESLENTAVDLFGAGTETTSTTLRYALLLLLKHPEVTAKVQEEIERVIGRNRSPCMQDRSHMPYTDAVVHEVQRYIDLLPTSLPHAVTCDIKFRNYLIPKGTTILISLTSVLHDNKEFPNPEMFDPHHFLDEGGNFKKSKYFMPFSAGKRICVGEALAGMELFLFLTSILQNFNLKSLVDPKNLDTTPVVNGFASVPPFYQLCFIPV

[1] = molecular target: Peroxisome proliferator-activated receptor gamma/Nuclear receptor coactivator 2 (Homo sapiens, UniProt P37231); assay: (§1) TR-FRET dose response biochemical High Throughput Screening assay for agonists of the steroid receptor coactivator 2 (SRC-2) recruitment by the peroxisome proliferator-activated receptor gamma (PPAR gamma): non-selective agonists. [Related pubchem assays: 1297, 1032 ]; type: functional
Sequence of Peroxisome proliferator-activated receptor gamma/Nuclear receptor coactivator 2 (P37231 whole entry): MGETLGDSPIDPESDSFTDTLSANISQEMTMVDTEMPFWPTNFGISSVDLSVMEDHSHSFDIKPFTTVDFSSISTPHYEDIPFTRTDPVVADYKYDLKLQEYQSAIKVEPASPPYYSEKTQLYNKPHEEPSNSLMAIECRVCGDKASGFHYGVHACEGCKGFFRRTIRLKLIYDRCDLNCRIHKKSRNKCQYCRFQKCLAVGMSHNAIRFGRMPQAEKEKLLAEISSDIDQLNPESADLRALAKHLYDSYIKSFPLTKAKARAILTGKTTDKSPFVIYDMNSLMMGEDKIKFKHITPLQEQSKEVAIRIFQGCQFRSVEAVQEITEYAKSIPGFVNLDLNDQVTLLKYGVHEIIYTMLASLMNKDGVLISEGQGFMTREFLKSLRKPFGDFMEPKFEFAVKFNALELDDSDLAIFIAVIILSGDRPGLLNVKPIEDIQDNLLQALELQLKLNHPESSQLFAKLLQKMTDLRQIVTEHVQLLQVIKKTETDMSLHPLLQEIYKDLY
Sequence of Peroxisome proliferator-activated receptor gamma/Nuclear receptor coactivator 2 (Q15596 whole entry, further chain): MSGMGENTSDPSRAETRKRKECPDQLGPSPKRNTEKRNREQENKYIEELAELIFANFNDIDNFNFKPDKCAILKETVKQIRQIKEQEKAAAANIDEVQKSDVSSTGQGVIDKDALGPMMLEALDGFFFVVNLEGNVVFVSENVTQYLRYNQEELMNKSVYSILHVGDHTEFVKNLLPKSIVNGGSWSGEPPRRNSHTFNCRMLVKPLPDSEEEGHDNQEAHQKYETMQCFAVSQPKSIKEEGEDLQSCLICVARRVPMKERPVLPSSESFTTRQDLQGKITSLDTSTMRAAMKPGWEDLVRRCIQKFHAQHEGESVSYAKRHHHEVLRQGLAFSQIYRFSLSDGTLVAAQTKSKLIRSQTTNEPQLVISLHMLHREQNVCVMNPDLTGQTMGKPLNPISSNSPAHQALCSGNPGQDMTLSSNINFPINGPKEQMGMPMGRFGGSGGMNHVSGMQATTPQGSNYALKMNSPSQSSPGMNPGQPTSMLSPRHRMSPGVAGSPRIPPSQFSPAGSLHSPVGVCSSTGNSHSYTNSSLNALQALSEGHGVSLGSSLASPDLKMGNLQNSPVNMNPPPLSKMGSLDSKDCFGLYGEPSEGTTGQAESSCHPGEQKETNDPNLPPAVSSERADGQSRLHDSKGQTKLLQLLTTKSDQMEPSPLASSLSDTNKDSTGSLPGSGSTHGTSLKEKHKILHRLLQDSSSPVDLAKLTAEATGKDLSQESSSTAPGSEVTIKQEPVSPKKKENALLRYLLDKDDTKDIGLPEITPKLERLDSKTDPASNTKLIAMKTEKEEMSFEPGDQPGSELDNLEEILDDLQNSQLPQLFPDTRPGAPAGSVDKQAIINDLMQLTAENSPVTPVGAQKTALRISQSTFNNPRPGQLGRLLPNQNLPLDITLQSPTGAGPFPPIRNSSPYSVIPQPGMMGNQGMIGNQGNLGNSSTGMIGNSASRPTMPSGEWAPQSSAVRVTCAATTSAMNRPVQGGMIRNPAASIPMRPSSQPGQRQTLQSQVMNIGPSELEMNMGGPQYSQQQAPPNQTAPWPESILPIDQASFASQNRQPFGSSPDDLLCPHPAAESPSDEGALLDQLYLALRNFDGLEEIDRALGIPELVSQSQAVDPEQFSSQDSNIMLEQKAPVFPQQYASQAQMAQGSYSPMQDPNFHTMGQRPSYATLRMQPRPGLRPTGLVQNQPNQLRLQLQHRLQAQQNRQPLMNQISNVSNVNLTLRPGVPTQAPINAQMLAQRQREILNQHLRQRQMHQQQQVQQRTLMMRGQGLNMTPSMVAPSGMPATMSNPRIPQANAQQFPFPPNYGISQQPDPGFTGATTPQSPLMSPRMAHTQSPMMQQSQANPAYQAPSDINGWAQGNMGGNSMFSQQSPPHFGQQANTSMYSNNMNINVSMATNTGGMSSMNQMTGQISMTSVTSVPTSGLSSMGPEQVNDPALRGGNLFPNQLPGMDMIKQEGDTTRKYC

[2] = molecular target: Peroxisome proliferator-activated receptor gamma/Nuclear receptor coactivator 1 (Homo sapiens, UniProt P37231); assay: as §1, with “1 (SRC-1)” for “2 (SRC-2)”, “assays (depositor defined):AID1300, AID1808, AID504735, AID631]” for “assays: 1297, 1032 ]”; type: protein assay
[3] = molecular target: Peroxisome proliferator-activated receptor gamma/Nuclear receptor coactivator 3 (Homo sapiens, UniProt P37231); assay: as §1, with “3 (SRC-3)” for “2 (SRC-2)”, “1301 (Confirmation screen.), 1048 (Primary screen.)]” for “1297, 1032 ]”; type: functional
Sequence of Peroxisome proliferator-activated receptor gamma/Nuclear receptor coactivator 3 (P37231 whole entry): as the sequence (P37231 whole entry) above
Sequence of Peroxisome proliferator-activated receptor gamma/Nuclear receptor coactivator 3 (Q9Y6Q9 whole entry, further chain): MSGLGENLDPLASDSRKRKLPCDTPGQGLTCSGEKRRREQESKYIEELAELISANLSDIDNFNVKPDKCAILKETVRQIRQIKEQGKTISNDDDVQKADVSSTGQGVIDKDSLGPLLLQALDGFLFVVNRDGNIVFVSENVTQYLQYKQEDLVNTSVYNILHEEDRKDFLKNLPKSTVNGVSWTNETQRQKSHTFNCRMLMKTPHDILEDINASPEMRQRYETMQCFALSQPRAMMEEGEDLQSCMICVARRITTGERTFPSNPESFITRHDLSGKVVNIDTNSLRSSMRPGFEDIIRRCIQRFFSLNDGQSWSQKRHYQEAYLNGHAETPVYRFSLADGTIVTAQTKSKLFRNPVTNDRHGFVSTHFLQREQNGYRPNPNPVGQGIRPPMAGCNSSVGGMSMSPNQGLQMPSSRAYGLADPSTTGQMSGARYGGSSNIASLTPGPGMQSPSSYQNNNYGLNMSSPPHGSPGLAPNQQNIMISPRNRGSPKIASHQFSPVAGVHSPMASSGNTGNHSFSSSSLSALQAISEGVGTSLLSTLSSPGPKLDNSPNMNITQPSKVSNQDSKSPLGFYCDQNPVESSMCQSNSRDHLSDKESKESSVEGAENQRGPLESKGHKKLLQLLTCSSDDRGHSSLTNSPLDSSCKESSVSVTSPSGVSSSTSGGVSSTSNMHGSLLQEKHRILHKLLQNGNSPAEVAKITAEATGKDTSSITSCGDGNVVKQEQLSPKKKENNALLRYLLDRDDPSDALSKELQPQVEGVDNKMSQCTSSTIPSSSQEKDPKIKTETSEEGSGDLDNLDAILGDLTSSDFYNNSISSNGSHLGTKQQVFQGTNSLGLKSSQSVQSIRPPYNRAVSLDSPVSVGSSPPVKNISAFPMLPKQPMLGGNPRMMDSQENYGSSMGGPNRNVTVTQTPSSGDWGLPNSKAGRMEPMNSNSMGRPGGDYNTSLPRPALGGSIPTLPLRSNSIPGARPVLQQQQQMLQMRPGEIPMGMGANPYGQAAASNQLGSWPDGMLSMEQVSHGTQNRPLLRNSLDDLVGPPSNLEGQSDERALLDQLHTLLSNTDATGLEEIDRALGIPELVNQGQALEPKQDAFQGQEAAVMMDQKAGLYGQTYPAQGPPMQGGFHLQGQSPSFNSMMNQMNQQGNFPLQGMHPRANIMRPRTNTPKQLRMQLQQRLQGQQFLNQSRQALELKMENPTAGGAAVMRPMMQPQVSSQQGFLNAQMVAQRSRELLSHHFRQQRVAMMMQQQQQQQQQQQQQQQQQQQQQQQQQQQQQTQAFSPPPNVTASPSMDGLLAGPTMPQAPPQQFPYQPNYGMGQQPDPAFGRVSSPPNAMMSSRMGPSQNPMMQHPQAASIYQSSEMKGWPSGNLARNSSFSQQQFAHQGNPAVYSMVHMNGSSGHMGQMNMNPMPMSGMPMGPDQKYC

[4] = molecular target: DNA dC->dU-editing enzyme APOBEC-3G (Homo sapiens, UniProt Q9HC16); type: functional;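 note: Dose-response counterscreen measuring inhibition of APOBEC3G DNA deaminase activity, run while confirming APOBEC3A inhibitors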
[5] = molecular target: DNA dC->dU-editing enzyme APOBEC-3A (Homo sapiens, UniProt P31941); assay: Dose Response confirmation of small molecule APOBEC3A DNA Deaminase Inhibitors via a fluorescence-based single-stranded DNA deaminase assay. [Related pubchem assays (depositor defined):AID493011, AID493024]; type: functional
Sequence of DNA dC->dU-editing enzyme APOBEC-3A (P31941 whole entry): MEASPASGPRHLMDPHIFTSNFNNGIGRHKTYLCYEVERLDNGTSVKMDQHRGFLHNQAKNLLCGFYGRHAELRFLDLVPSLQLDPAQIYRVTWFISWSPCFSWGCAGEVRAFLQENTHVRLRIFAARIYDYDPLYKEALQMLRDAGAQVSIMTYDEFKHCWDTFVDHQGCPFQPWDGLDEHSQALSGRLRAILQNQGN

[6] = molecular target: G-protein coupled receptor 55 (Homo sapiens, UniProt Q9Y2T6); assay: GPR55 agonists via beta-arrestin recruitment, primary screen, imaging, U2OS cells, beta-arrestin-GFP redistribution (AID 1961); type: functional
Sequence of G-protein coupled receptor 55 (Q9Y2T6 whole entry): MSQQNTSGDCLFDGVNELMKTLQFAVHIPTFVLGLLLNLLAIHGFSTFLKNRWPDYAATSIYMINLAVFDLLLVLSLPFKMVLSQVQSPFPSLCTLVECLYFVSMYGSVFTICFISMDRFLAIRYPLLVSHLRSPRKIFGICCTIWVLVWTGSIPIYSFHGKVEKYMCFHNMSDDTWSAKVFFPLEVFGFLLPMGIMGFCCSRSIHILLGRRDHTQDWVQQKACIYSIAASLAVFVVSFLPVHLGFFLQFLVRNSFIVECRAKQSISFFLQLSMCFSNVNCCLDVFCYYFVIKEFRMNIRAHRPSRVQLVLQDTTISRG

[7] = molecular target: T2, Tyrosine-protein phosphatase non-receptor type 7 (Homo sapiens, UniProt P35236); assay: redox-dependent HePTP inhibition, mechanism study, biochemical, fluorescence (AID 2068); type: functional
T2 sequence (P35236 whole entry): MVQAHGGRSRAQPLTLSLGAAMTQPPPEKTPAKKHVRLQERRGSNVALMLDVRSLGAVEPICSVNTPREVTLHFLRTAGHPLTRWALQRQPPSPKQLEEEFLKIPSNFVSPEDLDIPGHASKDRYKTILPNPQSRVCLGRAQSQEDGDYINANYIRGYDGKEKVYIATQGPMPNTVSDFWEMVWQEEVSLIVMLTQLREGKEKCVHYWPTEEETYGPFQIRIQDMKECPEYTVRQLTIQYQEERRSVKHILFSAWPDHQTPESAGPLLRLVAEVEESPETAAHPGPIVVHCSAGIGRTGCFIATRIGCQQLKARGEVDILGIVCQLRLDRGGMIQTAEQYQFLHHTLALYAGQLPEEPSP

[8] = molecular target: T3, Dual specificity protein phosphatase 6 (Rattus norvegicus, UniProt Q64346); type: functional;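 note: confirmatory in vitro dose-response testing of MKP-3 inhibition; recombinant His-tagged MKP-3 made in E. coli BL21 with OMFP substrate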
T3 sequence (Q64346 whole entry): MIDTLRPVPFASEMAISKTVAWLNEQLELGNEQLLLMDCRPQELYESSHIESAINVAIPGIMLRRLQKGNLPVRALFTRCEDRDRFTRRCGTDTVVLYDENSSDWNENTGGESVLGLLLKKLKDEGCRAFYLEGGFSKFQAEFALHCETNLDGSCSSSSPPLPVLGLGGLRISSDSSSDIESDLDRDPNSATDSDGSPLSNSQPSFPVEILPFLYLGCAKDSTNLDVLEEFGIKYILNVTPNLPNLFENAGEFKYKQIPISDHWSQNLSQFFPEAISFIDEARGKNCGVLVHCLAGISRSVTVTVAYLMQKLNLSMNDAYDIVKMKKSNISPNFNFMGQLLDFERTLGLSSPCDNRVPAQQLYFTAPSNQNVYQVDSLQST

CAAX prenyl protease 2 = molecular target: T4, CAAX prenyl protease 2 (Saccharomyces cerevisiae S288c, UniProt Q03530); type: biochemical
T4 sequence (Q03530 whole entry): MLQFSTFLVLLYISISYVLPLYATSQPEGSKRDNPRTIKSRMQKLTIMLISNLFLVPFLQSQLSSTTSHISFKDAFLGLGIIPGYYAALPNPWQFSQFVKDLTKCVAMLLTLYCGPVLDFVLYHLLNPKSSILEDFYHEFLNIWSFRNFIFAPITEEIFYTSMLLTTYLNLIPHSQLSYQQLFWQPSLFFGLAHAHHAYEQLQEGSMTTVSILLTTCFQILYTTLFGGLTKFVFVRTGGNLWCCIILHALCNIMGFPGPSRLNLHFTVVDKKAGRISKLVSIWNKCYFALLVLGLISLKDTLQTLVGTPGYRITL

SMILES: NCCC[C@@H](CC(=O)N[C@@H]1CCNC[C@H]1C(=O)N[C@H](CC(=O)N[C@@H](CCC(=O)O)CC(=O)O)Cc1c[nH]c2ccccc12)NC(=O)C[C@H](Cc1c[nH]c2ccccc12)NC(=O)[C@@H]1CNCC[C@H]1N
AC50 (Cytochrome P450 2D6): 39.8 µM (inconclusive) | AC50 (Cytochrome P450 2C9): 31.6 µM (inconclusive)

SMILES: Cc1ccc2c(c1)N(CC(=O)NC1CCCc3ccccc31)C(=O)CO2 (centres undefined)
IC50 (Estrogen receptor): > 50 µM (not active)

SMILES: CCCC[n+]1c(C)sc2cc(OC)ccc21
IC50 [4]: > 100 µM (inactive) | IC50 [5]: 36 µM (active)

SMILES: C[N+](C)(C)CCCCCC(=O)C=NO
IC50 [4]: 12.6 µM (active) | IC50 [5]: 5.54 µM (active)

SMILES: O=C(NCCC1=CCCCC1)Nc1ccc2nc(-c3ccco3)c(-c3ccco3)nc2c1
IC50 [7]: 2.73 µM (active)

SMILES: COc1cc(C(=S)NCc2ccc(O)cc2)ccc1O
IC50 [7]: 10.1 µM (active) | IC50 [8]: > 100 µM (inactive)

SMILES: CC(=O)O[C@@H]1CC[C@]2(C)[C@H]3CC[C@]4(C)[C@H](C[C@H]5CCCC[C@@]54C(C)=O)[C@@H]3CC(=O)[C@@]2(O)C1
AC50 (Cytochrome P450 2C9): 25.1 µM (inconclusive)

SMILES: COc1ccccc1C1=NN(C(S)=Nc2ccccc2)C(c2ccco2)C1 (centres undefined)
EC50 [1]: > 79.4 µM (not active) | EC50 [2]: 19.7 µM (inactive) | EC50 [3]: > 79.4 µM (not active)

Second part, the compound after the results:

IC50 (Estrogen receptor): 35.2 µM (not active)
SMILES: CCOCCCNC(=O)c1cnc2ccc(S(=O)(=O)Nc3cccc(OC)c3)cc2c1O

EC50 [1]: > 79.4 µM (not active) | EC50 [2]: > 79.4 µM (inactive) | EC50 [3]: > 79.4 µM (not active)
SMILES: CCn1c(=O)cc(SCC(=O)NCC2CCCO2)c2ccccc21 (centres undefined)

EC50 [6]: > 32 µM (inactive)
SMILES: COc1ccc(/C=C2\Sc3ccc(C(=O)NC4CC4)cc3N(C)C2=O)cc1OC

EC50 [6]: > 32 µM (inactive)
SMILES: COCc1nnc(NC(=O)CCSc2ccccc2)s1

IC50 [7]: 1.64 µM (active) | IC50 [8]: > 100 µM (inactive)
SMILES: COc1cc(C(=S)NCc2ccc(C)cc2C)ccc1O

AC50 (CAAX prenyl protease 2): 5.31 µM (active)
SMILES: O=c1c(-c2ccccc2)c(O)c2ccccc2n1-c1ccccc1

AC50 (Cytochrome P450 2C9): 6.31 µM (inconclusive)
SMILES: CC(C)C[C@@H](CC(=O)N[C@@H](CCC(=O)O)CC(=O)O)NC(=O)[C@@H]1CNCC[C@H]1NC(=O)C[C@@H](NC(=O)C[C@H](CO)NC(=O)[C@@H]1CNCC[C@H]1N)C(C)C
